# Reference: the supplement of paper PMC10331698
# ± gives the standard deviation of the averaged measurements.
# How the values were obtained:
# Experiment in all cases: LOEC (log10 uM (lowest observed effect concentration))
# [1] = compound: NS(=O)(=O)C(F)(F)C(F)(F)C(F)(F)C(F)(F)C(F)(F)C(F)(F)C(F)(F)C(F)(F)F [Perfluorooctanesulfonamide]
# Experimental: (§1)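 BioMAP Diversity Plus panel in human primary cell co-cultures, 4 concentrations in duplicate blinded samples. Responses are log10 fold change versus DMSO control, processed with tcpl v2.1.0. A hit is called when responses at any concentration exceed the cutoff (the larger of 3*bmad or log10(1.2)); the lowest observed effect concentration (modl_ga, log10 uM) is reported for hits.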
# Perfluoroundecanoic acid = compound: O=C(O)C(F)(F)C(F)(F)C(F)(F)C(F)(F)C(F)(F)C(F)(F)C(F)(F)C(F)(F)C(F)(F)C(F)(F)F [Perfluoroundecanoic acid]
# Experimental: as §1
# [2] = compound: CCNS(=O)(=O)C(F)(F)C(F)(F)C(F)(F)C(F)(F)C(F)(F)C(F)(F)C(F)(F)C(F)(F)F [N-Ethylperfluorooctanesulfonamide]
# Experimental: as §1
# [3] = compound: O=C(O)C(F)(F)OC(F)(F)C(F)(F)OC(F)(F)C(F)(F)OC(F)(F)C(F)(F)C(F)(F)C(F)(F)F [Perfluoro-3,6,9-trioxatridecanoic acid]
# Experimental: as §1
# Perfluorononanoic acid = compound: O=C(O)C(F)(F)C(F)(F)C(F)(F)C(F)(F)C(F)(F)C(F)(F)C(F)(F)C(F)(F)F [Perfluorononanoic acid]
# Experimental: as §1
# [4] = compound: OCC(F)(F)OC(F)(F)C(F)(F)OC(F)(F)C(F)(F)OC(F)(F)CO [1H,1H,11H,11H-Perfluorotetraethylene glycol]
# Experimental: as §1
# [5] = compound: O=C(O)C=C(C(F)(F)F)C(F)(F)F [3,3-Bis(trifluoromethyl)-2-propenoic acid]
# Experimental: as §1
Test System,LOEC (log10 uM) [1],LOEC (log10 uM) (Perfluoroundecanoic acid),LOEC (log10 uM) [2],LOEC (log10 uM) [3],LOEC (log10 uM) (Perfluorononanoic acid),LOEC (log10 uM) [4],LOEC (log10 uM) [5]
hDFCGF TIMP1 up,1.78,–,–,–,–,–,–
BE3C EGFR down,1.78,0.845,1.54 ± 0.34,–,–,–,–
LPS Eselectin down,1.78,–,–,1.78,–,–,–
BF4T VCAM1 down,1.3,0.845,0.845,0.845,1.07 ± 0.32,–,–
CASM3C uPAR down,1.78,–,–,–,–,–,–
BT Bcell Proliferation up,–,–,–,–,1.78,–,–
SAg PBMCCytotoxicity down,1.78,–,–,1.78,–,–,–
LPS TissueFactor down,1.78,–,–,1.78,–,–,–
BE3C SRB down,1.78,0.845,1.78,0.845,1.78,–,–
hDFCGF TIMP1 down,–,0.845,1.78,1.07 ± 0.32,–,–,–
BF4T IL1a down,1.78,0.845,1.78,1.3,1.78,–,–
SAg SRB down,1.78,–,1.78,1.78,1.78,–,–
BF4T ICAM1 down,1.54 ± 0.34,0.845,1.78,1.07 ± 0.32,1.78,–,–
MyoF TIMP1 down,1.78,0.573 ± 0.39,1.3,1.3,–,–,–
3C uPAR down,1.78,–,–,1.54 ± 0.34,1.78,–,–
BT sIgG down,1.54 ± 0.34,–,1.54 ± 0.34,1.78,–,1.78,1.78
SAg CD69 down,1.54 ± 0.34,0.845,1.3,1.54 ± 0.34,1.78,–,1.78
MyoF IL8 down,1.78,0.845,1.78,1.78,–,–,–
BE3C MIG down,1.78,0.845,1.78,0.845,1.78,–,–
KF3CT MCP1 down,1.78,0.845,–,0.845,0.801 ± 0.71,–,–
4H VEGFRII down,–,–,1.78,–,–,–,–
3C HLADR down,1.54 ± 0.34,–,–,1.78,1.78,–,1.78
hDFCGF IL8 down,1.3,0.845,1.78,1.3,–,–,–

Test System,LOEC (log10 uM) [1],LOEC (log10 uM) (Perfluoroundecanoic acid),LOEC (log10 uM) [2],LOEC (log10 uM) [3],LOEC (log10 uM) (Perfluorononanoic acid),LOEC (log10 uM) [4],LOEC (log10 uM) [5]
LPS CD40 down,1.78,–,1.78,1.78,1.78,–,1.78
hDFCGF ICAM1 down,1.3,0.845,1.54 ± 0.34,1.07 ± 0.32,1.78,–,–
BF4T PAI1 down,1.78,0.845,–,1.3,1.78,–,–
3C IL8 down,–,–,–,1.3,–,–,–
BT xTNFa down,1.54 ± 0.34,–,–,–,–,1.78,1.54 ± 0.34
hDFCGF ITAC down,0.845,0.845,0.845,0.845,1.78,1.3,–
hDFCGF CollagenI down,–,0.845,1.78,1.54 ± 0.34,–,–,–
4H VCAM1 down,1.78,–,1.78,1.54 ± 0.34,–,–,0.573 ± 0.39
KF3CT PAI1 down,1.54 ± 0.34,0.301,1.54 ± 0.34,0.845,1.78,–,–
LPS VCAM1 down,1.78,–,–,1.78,1.78,–,0.573 ± 0.39
SAg Proliferation down,1.78,–,1.78,1.78,1.78,–,1.78
BF4T MMP1 down,–,0.845,1.78,1.3,1.78,–,–
hDFCGF SRB down,1.78,0.845,1.54 ± 0.34,0.845,–,–,–
KF3CT MMP9 down,1.3,0.301,1.3,0.845,1.31 ± 0.66,–,–
MyoF ACTA1 down,1.3,0.845,1.78,0.845,1.78,1.78,–
BF4T CD90 down,1.78,–,–,1.3,–,–,–
IMphg IL1a down,–,–,–,1.54 ± 0.34,–,–,–
CASM3C SRB down,1.78,–,–,1.78,–,–,–
MyoF CollagenIII down,1.3,0.301,1.78,0.845,1.78,–,–
3C TissueFactor down,1.78,–,–,1.3,1.78,–,–
IMphg SRB down,1.78,–,–,1.78,–,–,–
MyoF CollagenIV up,–,–,–,–,1.3,–,–
BF4T MCP1 down,1.78,0.845,1.3,1.07 ± 0.32,1.3,1.3,–

Test System,LOEC (log10 uM) [1],LOEC (log10 uM) (Perfluoroundecanoic acid),LOEC (log10 uM) [2],LOEC (log10 uM) [3],LOEC (log10 uM) (Perfluorononanoic acid),LOEC (log10 uM) [4],LOEC (log10 uM) [5]
BF4T Keratin818 down,1.54 ± 0.34,0.845,1.54 ± 0.34,1.3,1.78,–,–
4H SRB down,1.3,–,1.78,1.78,1.78,–,–
KF3CT TIMP2 down,1.78,0.845,1.78,0.845,–,–,–
BE3C ICAM1 down,1.78,0.845,–,0.845,1.78,–,–
BE3C IL1a down,1.78,0.845,1.78,0.845,1.78,–,–
BT xIL17F down,1.78,–,1.54 ± 0.34,1.78,–,1.78,0.573 ± 0.39
LPS CD69 down,1.3,–,–,1.78,1.78,–,–
hDFCGF TIMP2 down,–,0.845,1.54 ± 0.34,0.845,–,–,–
hDFCGF MCP1 down,1.3,0.573 ± 0.39,1.78,0.845,–,1.54 ± 0.34,–
KF3CT IL8 down,1.78,0.845,–,–,–,–,–
LPS IL8 down,1.78,–,1.78,1.07 ± 0.32,–,–,–
BE3C uPA down,1.78,0.845,–,0.845,1.31 ± 0.66,–,–
BT Bcell Proliferation down,–,–,–,–,–,–,1.78
KF3CT uPA down,1.3,0.845,1.78,1.3,–,–,–
hDFCGF PAI1 down,1.3,0.845,1.54 ± 0.34,0.845,–,–,–
BE3C PAI1 down,0.845,-0.199 ± 0.71,0.845,0.573 ± 0.39,1.54 ± 0.34,–,–
SAg MIG down,1.78,–,–,1.78,–,–,–
MyoF PAI1 down,1.78,0.845,1.78,1.07 ± 0.32,–,–,–
BF4T uPA down,1.78,0.845,–,1.3,1.78,–,–
BF4T MMP9 down,1.3,0.845,1.54 ± 0.34,1.07 ± 0.32,1.78,–,–
SAg CD40 down,1.3,0.845,1.3,1.78,1.78,1.78,–
IMphg SRB.Mphg down,1.78,–,–,1.78,–,–,–
MyoF Decorin down,–,0.845,1.78,1.3,–,–,–

Test System,LOEC (log10 uM) [1],LOEC (log10 uM) (Perfluoroundecanoic acid),LOEC (log10 uM) [2],LOEC (log10 uM) [3],LOEC (log10 uM) (Perfluorononanoic acid),LOEC (log10 uM) [4],LOEC (log10 uM) [5]
MyoF bFGF down,1.78,0.845,1.78,1.07 ± 0.32,–,–,–
SAg CD38 down,1.54 ± 0.34,–,1.78,1.78,1.78,–,–
BE3C MMP9 down,0.845,-0.199 ± 0.71,0.845,0.845,1.78,–,–
4H uPAR down,1.78,–,–,1.78,–,–,–
hDFCGF MIG down,0.573 ± 0.39,0.845,1.3,0.845,1.54 ± 0.34,0.845,–
CASM3C HLADR down,–,–,–,–,–,–,0.573 ± 0.39
hDFCGF EGFR down,–,0.301,–,–,–,–,–
CASM3C LDLR down,1.78,–,–,1.78,–,–,–
3C Thrombomodulin up,1.3,–,–,–,–,–,–
KF3CT SRB down,1.78,0.845,–,1.3,–,–,–
LPS MCP1 down,1.78,–,1.78,1.54 ± 0.34,1.78,–,–
KF3CT MIG down,1.78,0.845,–,1.3,–,–,–
3C SRB down,1.3,–,1.78,1.3,1.78,–,–
BF4T SRB down,1.78,0.845,1.78,1.3,1.78,–,–
KF3CT ICAM1 down,1.78,0.845,–,1.3,–,–,–
3C VCAM1 down,1.78,–,1.78,1.78,1.78,–,1.54 ± 0.34
hDFCGF MMP1 up,–,–,–,–,–,1.54 ± 0.34,–
4H MCP1 down,1.78,–,1.78,1.78,–,1.78,–
BF4T MMP3 down,1.78,0.845,–,1.07 ± 0.32,1.78,–,–
hDFCGF CollagenIII down,1.3,0.845,0.845,0.845,–,–,–
LPS TissueFactor up,–,–,1.78,–,–,–,–
BF4T IL8 down,1.78,–,–,–,1.78,–,–
3C MCP1 down,1.78,–,–,1.78,1.78,–,–

Test System,LOEC (log10 uM) [1],LOEC (log10 uM) (Perfluoroundecanoic acid),LOEC (log10 uM) [2],LOEC (log10 uM) [3],LOEC (log10 uM) (Perfluorononanoic acid),LOEC (log10 uM) [4],LOEC (log10 uM) [5]
4H Pselectin down,1.78,–,1.54 ± 0.34,1.78,–,–,1.78
SAg MCP1 down,1.78,–,1.78,1.78,1.78,–,–
hDFCGF IP10 down,0.573 ± 0.39,0.301,0.845,0.845,1.78,1.3,–
BE3C ITAC down,1.3,0.301,1.3,0.845,1.78,–,–
BE3C Keratin818 down,1.78,0.845,0.845,0.845,1.78,–,–
BE3C uPAR down,1.78,0.845,1.3,0.845,1.78,–,–
3C ICAM1 down,1.78,–,–,1.78,–,–,–
3C Proliferation down,1.3,0.845,1.78,1.3,1.78,1.54 ± 0.34,–
BT xIL17A down,1.78,–,–,1.78,–,–,1.78
CASM3C Proliferation down,1.78,–,–,1.78,–,–,1.78
hDFCGF MCSF down,1.3,0.845,1.3,0.845,–,1.54 ± 0.34,–
LPS SRB down,1.78,–,1.78,1.78,1.78,–,–
MyoF CollagenI down,1.3,0.301,1.78,0.845,1.54 ± 0.34,–,–
LPS MCSF down,1.78,–,–,1.78,–,–,1.31 ± 0.66
KF3CT IP10 down,1.3,0.845,1.54 ± 0.34,0.845,1.78,–,–
MyoF VCAM1 down,1.3,0.845,1.3,0.845,1.78,–,1.3
3C MIG down,1.78,–,–,1.78,–,–,–
3C Eselectin down,1.78,–,–,1.78,–,–,1.3
MyoF SRB down,1.3,0.845,1.78,1.07 ± 0.32,–,–,–
